What was measured:
Tau-BiFC cells = assay: Cell viability (stained nuclei count) in Tau-BiFC cells; format: cell-based; conditions: 10 μM compound, 48 hours; Forskolin-only group = 100% cell viability
Method in brief: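 Tau-BiFC cells co-treated 48 h with 30 μM forskolin and compounds (1, 3, 10 μM screen; 0.01–30 μM dose-response). BiFC fluorescence normalized to forskolin-only (100% aggregation) minus untreated gives aggregation inhibition and IC50; viability as Hoechst-stained nuclei count relative to forskolin-only.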

CYP1A2 = molecular target: T1, CYP1A2 (Homo sapiens, UniProt P05177); assay: Inhibitory effect on CYP coenzyme activity, human liver microsomes; format: in vitro ADME; conditions: 10 μM compound, human liver microsomes 0.25 mg/mL, substrate phenacetin, 15 minutes
T1 construct: human liver microsomes (0.25 mg/mL); from tissue; host or cells: human liver microsomes
T1 sequence (P05177 1-516): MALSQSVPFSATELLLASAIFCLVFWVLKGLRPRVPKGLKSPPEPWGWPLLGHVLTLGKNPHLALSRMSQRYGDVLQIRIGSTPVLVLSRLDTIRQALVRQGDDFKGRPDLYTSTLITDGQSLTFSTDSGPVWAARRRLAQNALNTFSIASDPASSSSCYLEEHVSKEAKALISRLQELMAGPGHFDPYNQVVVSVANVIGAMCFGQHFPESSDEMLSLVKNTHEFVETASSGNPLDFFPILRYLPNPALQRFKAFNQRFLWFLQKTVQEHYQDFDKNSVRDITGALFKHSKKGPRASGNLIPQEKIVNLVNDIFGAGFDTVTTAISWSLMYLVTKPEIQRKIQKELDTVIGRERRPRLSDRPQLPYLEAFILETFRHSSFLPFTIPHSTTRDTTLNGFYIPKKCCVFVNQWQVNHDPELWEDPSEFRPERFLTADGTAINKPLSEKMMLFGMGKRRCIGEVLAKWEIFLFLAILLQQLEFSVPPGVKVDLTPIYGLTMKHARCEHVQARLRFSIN
Method in brief: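 Human liver microsomes (0.25 mg/mL) in 0.1 M phosphate pH 7.4 were preincubated 5 min at 37 °C with a substrate cocktail (50 μM phenacetin, 10 μM diclofenac, 100 μM S-mephenytoin, 5 μM dextromethorphan, 2.5 μM midazolam) and 10 μM compound, then run 15 min with NADPH-generating system. Metabolites quantified by LC-MS/MS (MRM); activity expressed as % of untreated control.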

Row | Compound | Cell viability (% @10 μM) (Tau-BiFC cells) [%] | CYP1A2 coenzyme activity (%) with respect to control group not treated (CYP1A2) [%]
1 | Cn1c(=O)n(C(F)F)c2cc(NN=C(C#N)C#N)ccc21 [Compound 37, (3-(difluoromethyl)-1-methyl-2-oxo-2,3-dihydro-1H-benzo[d]imidazol-5-yl)carbonohydrazonoyl dicyanide] | 121 | 64.6
2 | CCn1c(=O)n(C)c2cc(NN=C(C#N)C#N)ccc21 [Compound 38, (1-ethyl-3-methyl-2-oxo-2,3-dihydro-1H-benzo[d]imidazol-5-yl)carbonohydrazonoyl dicyanide] | 106 | 98.9
3 | CC(C)n1c(=O)n(C2CC2)c2ccc(NN=C(C#N)C#N)cc21 [Compound 42, (1-cyclopropyl-3-isopropyl-2-oxo-2,3-dihydro-1H-benzo[d]imidazol-5-yl)carbonohydrazonoyl dicyanide] | 124 | 91.9
4 | CC(C)n1c(=O)n(C(F)F)c2cc(NN=C(C#N)C#N)ccc21 [Compound 43, (3-(difluoromethyl)-1-isopropyl-2-oxo-2,3-dihydro-1H-benzo[d]imidazol-5-yl)carbonohydrazonoyl dicyanide] | 96 | 61.7
5 | CCn1c(=O)n(C)c2cc(NN=C(C#N)C#N)cnc21 [Compound 48, (3-ethyl-1-methyl-2-oxo-2,3-dihydro-1H-imidazo[4,5-b]pyridin-6-yl)carbonohydrazonoyl dicyanide] | 143 | >100
6 | CC(C)n1c(=O)n(C2CC2)c2ncc(NN=C(C#N)C#N)cc21 [Compound 53, (3-cyclopropyl-1-isopropyl-2-oxo-2,3-dihydro-1H-imidazo[4,5-b]pyridin-6-yl)carbonohydrazonoyl dicyanide] | 125 | >100
7 | CCn1c(=O)n(C(C)C)c2ncc(NN=C(C#N)C#N)cc21 [Compound 55, (1-ethyl-3-isopropyl-2-oxo-2,3-dihydro-1H-imidazo[4,5-b]pyridin-6-yl)carbonohydrazonoyl dicyanide] | 124 | 58.4
